# In patent US7932390B2, “Substituted thieno[3,2-C]pyridine carboxylic acid derivatives” (Hoffman-La Roche Inc., priority 2006, dated 2011):
# Where a name gives a salt, the structure may show the parent alone.
# Tests used:
# Assay type in all cases: biochemical
# c-Raf = molecular target: T1, c-Raf (Homo sapiens, UniProt P04049); assay: c-Raf HTRF assay with 6H-MEK as substrate (dose response); conditions: cloned human c-Raf with EE-tag
# T1 construct: made in house; host or cells: baculovirus, High-5 (Hi5) insect cells, co-infected with FLAG-vSrc virus
# Description: (§1) Kinase Enzyme Inhibition Assay (IC50)
# c-Raf HTRF Assay with 6H-MEK as Substrate (Dose Response)
# The assay utilizes 6H-MEK as the substrate. Upon c-Raf phosphorylation, phosphorylated 6H-MEK is detected with rabbit anti-phospho-MEK1/2, Eu-labeled anti-rabbit, and APC-labeled anti-6H antibodies.
# (§2) Reagents and Instruments:
# Enzyme: cloned human c-Raf with EE-tag; phosphorylated (co-expressed with v-src-FLAG in baculovirus Hi5 cells), 0.2 mg/mL (2.74 μM assuming a molecular weight of 73 kD) stored at −15° C.
# Substrate: WT full-length 6H-MEK, 4.94 mg/mL (154.4 μM assuming a MW of 32 kD) stored at −15° C.
# (§3) Antibodies: Rabbit (α-P-(Ser 217/221)-MEK-1/2 Ab (from Cell Signaling, Cat. #9121B, Lot 14); Eu-(α-rabbit IgG (from Wallac, Cat. # AD0083, Lot 318663, 710 ug/mL, 4.4 μM); (α-6H-SureLight-APC (from Martek, Cat. #AD0059H, Lot E012AB01, 3.03 μM).
# (§4) Reader: Envision from PerkinElmer, HTRF reading mode with 412 mirror
# (§5) Assay Plate Matrix all-black polypropylene plates (Cat. #4344)
# (§6) Others: Weidman 384 polypropylene plates (REMP) for compound plate.
# (§7) (1) Prepare Kinase Assay Buffer (KAB): 50 mM HEPES (HyClone) pH7, 10 mM MgCl2, 1 mM DTT, 0.1 mM […], and 0.3 mg/ml BSA.
# (§8) (2) Prepare 6H-MEK (150 nM) in KAB. Add 12 μl/well to the assay plate.
# (§9) (3) Prepare ATP (66 μM) in KAB.
# (§10) (4) Dilute compounds to 2.4 mM and any positive controls to 480 μM in DMSO. Perform 10-point 3× dilution in DMSO. Withdraw 2.5 μl/well of DMSO solution and add to 27.5 μl/well ATP solution in (3).
# (§11) (5) Mix, then add 6 μl/well of solution in (4) to the assay plate for a DMSO concentration of 2.1% during MEK phosphorylation.
# (6) Prepare c-Raf (12 nM) in KAB.
# (7) Add 6 μl/well of KAB in columns 1-2 and 6 μl/well of c-Raf in columns 3-24.
# (§12) (8) Incubate at 37° C. for 30 min.
# (9) Prepare rabbit (α-P-(Ser 217/221)-MEK-1/2 Ab (1:240 from stock) in AB1: 50 mM HEPES pH7, 0.2 mg/ml BSA, and 43 mM EDTA.
# (§13) (10) To stop reaction, add 6 μl/well of solution from (9) to the assay plate and incubate at 37° C. for 30 min.
# (11) Prepare Eu-(α-rabbit IgG (9 nM) and (α-6H-SureLight-APC (120 nM) in AB2: 50 mM HEPES pH7 and 0.2 mg/ml BSA.
# (§14) (12) Add 6 μl/well of solution from (11) to the assay plate.
# (§15) (13) For determining the spectrum cross talk factor, prepare 2 samples following steps (1) to (10). For the blank sample, add 6 μl/well of AB2. For the cross talk factor sample, add 6 μl/well of Eu-anti rabbit IgG (9 nM).
# (§16) (14) Incubate at room temperature for 1.5 hours.
# (§17) (15) Read HTRF signals at 615 nm and 665 nm on the Envision. Normalize HTRF signals after spectrum cross-talk correction.
# Expression and Purification of c-Raf
# N terminal EE-tagged c-Raf was expressed in High-5 cells. A five liter culture was co-transfected with virus for EE-c-Raf and FLAG-vSrc at a ratio of 1:2 and harvested after 48 hours. The cell pellet was lysed in TBS containing 5 mM EDTA, 50 mM KF, 20 mM Na pyrophosphate, 20 mM β-glycerolphsphate, 0.5 mM Na VO3, 1% NP-40 (w/v) and Complete Protease Tablets. The lysate was centrifuged at 20,000×g for 1 hour. The supernatant was incubated with 8 ml of anti-EE tag-Protein G Sepharose for 2 hours at 4° C. The resin was then washed with 30 volumes of the above buffer. The c-Raf protein was eluted by incubation with the above buffer containing 100 mg/ml of EE peptide for 1 hour at 4° C. Protein was concentrated using an Amicon Stir Cell with an YM10 membrane. The concentrated protein was dialyzed against TBS containing 1 mM DTT and 30% Glycerol. Protein concentration was determined by the BioRad DC method.
# E. coli cells containing the plasmid for the expression of 6H-MEK1 (62-393) were grown in Rich Media and induced with 1 mM IPTG for 24 hours at 22° C. The cell pellet was resuspent in 50 mM potassium phosphate buffer, pH 8.0, 300 mM NaCl, 5 mM MgCl2, 10 mM CHAPS, 2 mM TCEP, and Complete Protease Inhibitor Tablets. Cells were disrupted by sonication. The lysate was cleared by centrifugation at 13,000×g for 45 minutes. […]
# b-Raf V600E Mutant = molecular target: T2, b-Raf V600E Mutant (Homo sapiens, UniProt P15056, V600E); assay: b-Raf V600E mutant HTRF assay with 6H-MEK as substrate (dose response); conditions: recombinant human b-Raf residues 416-end with V600E mutation, GST-tag
# T2 construct: recombinant human b-Raf residues 416-end containing a V600E mutation; purchased Upstate 14-5M; host or cells: baculovirus, Sf21 insect cells
# Excerpt: as §1
# b-Raf V600E Mutant HTRF Assay with 6H-MEK as Substrate (Dose Response)
# The assay utilizes 6H-MEK as the substrate. Upon b-Raf V600E phosphorylation, phosphorylated 6H-MEK is detected with rabbit anti-phospho-MEK1/2, Eu-labeled anti-rabbit, and APC-labeled anti-6H antibodies.
# as §2
# Enzyme: recombinant human b-Raf residues 416-end containing a V600E mutation with N-terminal GST-tag from Upstate; (expressed by baculovirus in Sf21 insect cells), 0.26 mg/mL ([…] assuming a molecular weight of 67.3 kD) Cat. #14-5M, Lot #25633AU, stored at −80° C.
# Substrate: WT full-length 6H-MEK from C. Belunis (May 26, 2004), 4.94 mg/mL (154.4 μM assuming a MW of 32 kD) stored at −15° C.
# as §3, §4, §5, §6, §7, §8, §9
# (4) Dilute compounds to 2.4 mM and positive controls to 480 μM in DMSO. Perform 10-point 3× dilution in DMSO. Withdraw 2.5 μl/well of DMSO solution and add to 27.5 μl/well ATP solution in (3).
# as §11
# (6) Prepare b-Raf V600E ([…]) in KAB.
# (7) Add 6 μl/well of KAB in columns 1-2 and 6 μl/well of b-Raf V600E in columns 3-24.
# as §12
# (9) Prepare rabbit α-P-(Ser 217/221)-MEK-1/2 Ab (1:200 from stock) in AB1: 50 mM HEPES pH7, 0.2 mg/ml BSA, and 43 mM EDTA.
# as §13
# (11) Prepare Eu-α-rabbit IgG (9 nM) and α-6H-SureLight-APC (180 nM) in AB2: 50 mM HEPES pH7 and 0.2 mg/ml BSA.
# as §14, §15, §16, §17
# b-Raf Wild-Type = molecular target: T3, b-Raf Wild-Type (Homo sapiens, UniProt P15056); assay: b-Raf wild-type HTRF assay with 6H-MEK as substrate (dose response); conditions: recombinant human b-Raf wild-type residues 416-end, GST-tag
# T3 construct: recombinant human b-Raf residues 416-end; purchased Upstate 14-530M; host or cells: baculovirus, Sf21 insect cells
# Description: as §1
# b-Raf Wild-Type HTRF Assay with 6H-MEK as Substrate (Dose Response)
# The assay utilizes 6H-MEK as the substrate. Upon b-Raf WT phosphorylation, phosphorylated 6H-MEK is detected with rabbit anti-phospho-MEK1/2, Eu-labeled anti-rabbit, and APC-labeled anti-6H antibodies.
# as §2
# Enzyme: recombinant human b-Raf residues 416-end with N-terminal GST-tag from Upstate; (expressed by baculovirus in Sf21 insect cells), 0.26 mg/mL (3.87 μM assuming a molecular weight of 67.2 kD) Cat. #14-530M, Lot #25502AU, stored at −80° C.
# Substrate: WT full-length 6H-MEK from C. Belunis (5126104), 4.94 mg/mL (154.4 μM assuming a MW of 32 kD) stored at −15° C.
# Antibodies: Rabbit (α-P-(Ser 217/221)-MEK-1/2 Ab (from Cell Signaling, Cat. #9121B, Lot 14); Eu-(α-rabbit IgG (from Wallac, Cat. #AD0083, Lot 318663, 710 ug/mL, 4.4 μM); (α-6H-SureLight-APC (from Martek, Cat. #AD0059H, Lot E012AB01, 3.03 μM).
# as §4, §5, §6, §7, §8, §9, §10, §11
# (6) Prepare b-Raf WT ([…]) in KAB.
# (7) Add 6 μl/well of KAB in columns 1-2 and 6 μl/well of b-Raf WT in columns 3-24.
# as §12
# (9) Prepare rabbit (α-P-(Ser 217/221)-MEK-1/2 Ab (1:200 from stock) in AB1: 50 mM HEPES pH7, 0.2 mg/ml BSA, and 43 mM EDTA.
# as §13
# (11) Prepare Eu-(α-rabbit IgG (9 nM) and (α-6H-SureLight-APC (180 nM) in AB2: 50 mM HEPES pH7 and 0.2 mg/ml BSA.
# as §14, §15, §16, §17
# T3 sequence (P15056 416-766 limits assumed): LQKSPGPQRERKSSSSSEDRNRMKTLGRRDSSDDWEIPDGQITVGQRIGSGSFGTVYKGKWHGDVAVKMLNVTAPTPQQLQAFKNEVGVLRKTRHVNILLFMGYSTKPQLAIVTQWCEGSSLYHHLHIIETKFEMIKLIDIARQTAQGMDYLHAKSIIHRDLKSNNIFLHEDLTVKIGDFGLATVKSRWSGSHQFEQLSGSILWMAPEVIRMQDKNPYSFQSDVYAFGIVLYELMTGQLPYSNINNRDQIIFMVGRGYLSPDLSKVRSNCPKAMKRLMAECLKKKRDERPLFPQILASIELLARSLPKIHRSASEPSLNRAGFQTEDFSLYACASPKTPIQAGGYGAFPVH
# T2 sequence (P15056 416-766 V600E): as the sequence (P15056 416-766 limits assumed) above, with V185E counted along it
# T1 sequence (P04049 whole entry): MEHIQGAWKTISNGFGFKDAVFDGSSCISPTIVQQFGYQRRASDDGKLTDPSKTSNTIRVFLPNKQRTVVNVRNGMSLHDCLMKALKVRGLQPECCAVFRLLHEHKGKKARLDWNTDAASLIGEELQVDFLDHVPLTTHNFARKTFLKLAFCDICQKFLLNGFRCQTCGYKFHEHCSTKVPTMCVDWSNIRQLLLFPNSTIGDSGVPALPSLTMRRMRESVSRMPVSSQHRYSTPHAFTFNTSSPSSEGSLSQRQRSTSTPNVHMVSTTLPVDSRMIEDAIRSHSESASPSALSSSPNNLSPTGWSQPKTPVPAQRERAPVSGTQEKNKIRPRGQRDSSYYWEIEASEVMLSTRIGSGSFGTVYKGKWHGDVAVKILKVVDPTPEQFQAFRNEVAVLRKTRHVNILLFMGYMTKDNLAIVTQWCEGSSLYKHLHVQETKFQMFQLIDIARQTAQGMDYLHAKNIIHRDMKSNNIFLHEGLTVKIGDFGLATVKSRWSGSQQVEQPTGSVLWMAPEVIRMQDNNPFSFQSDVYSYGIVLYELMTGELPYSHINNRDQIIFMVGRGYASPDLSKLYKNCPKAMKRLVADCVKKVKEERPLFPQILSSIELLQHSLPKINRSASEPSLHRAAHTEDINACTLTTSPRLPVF
Structure (SMILES),IC50 (c-Raf),IC50 (b-Raf V600E Mutant),IC50 (b-Raf Wild-Type)
"Cc1ccc(-c2cn(C)nn2)cc1OCc1csc2c(C(=O)NCCO)cnc(N)c12 [Example 24, 4-Amino-3-[2-methyl-5-(1-methyl-1H-[1,2,3]triazol-4-yl)-phenoxymethyl]-thieno[3,2-c]pyridine-7-carboxylic acid (2-hydroxy-ethyl)-amide]",11.9 nM,> 50000 nM,45 nM
"COc1ccc(Cn2nnc(-c3cccc(OCc4csc5c(C(=O)NCCO)cnc(N)c45)c3)n2)cc1 [Example 29, 4-Amino-3-{3-[2-(4-methoxy-benzyl)-2H-tetrazol-5-yl]-phenoxymethyl}-thieno[3,2-c]pyridine-7-carboxylic acid (2-hydroxy-ethyl)-amide]",231 nM,94 nM,544 nM
"Cc1ccc(-c2nnc(-c3ccc(Cl)cc3)o2)cc1OCc1csc2c(C(=O)NCCO)cnc(N)c12 [Example 49, 4-Amino-3-{5-[5-(4-chloro-phenyl)-[1,3,4]oxadiazol-2-yl]-2-methyl-phenoxy-methyl}-thieno[3,2-c]pyridine-7-carboxylic acid (2-hydroxy-ethyl)-amide trifluoroacetic acid salt]",17 nM,920 nM,5140 nM

# Results, then the molecule that gave them:
IC50 (c-Raf),IC50 (b-Raf V600E Mutant),IC50 (b-Raf Wild-Type),Structure (SMILES)
5420 nM,997 nM,12700 nM,"CCOC(=O)c1cnc(N)c2c(COc3cccc(-c4nnc(C)o4)c3)csc12 [Example 9, 4-Amino-3-[3-(5-methyl-[1,3,4]oxadiazol-2-yl)-phenoxymethyl]-thieno[3,2-c]pyridine-7-carboxylic acid ethyl ester]"
768 nM,327 nM,1300 nM,"Cc1nnc(-c2cccc(OCc3csc4c(C(=O)NCCO)cnc(N)c34)c2)o1 [Example 10, 4-Amino-3-[3-(5-methyl-[1,3,4]oxadiazol-2-yl)-phenoxymethyl]-thieno[3,2-c]pyridine-7-carboxylic acid (2-hydroxy-ethyl)-amide]"
41 nM,17 nM,117 nM,"Cc1nnc(-c2ccc(C)c(OCc3csc4c(C(=O)NCCO)cnc(N)c34)c2)o1 [Example 14, 4-Amino-3-[2-methyl-5-(5-methyl-[1,3,4]oxadiazol-2-yl)-phenoxymethyl]-thieno[3,2-c]pyridine-7-carboxylic acid (2-hydroxy-ethyl)-amide trifluoro-acetic acid salt]"
341 nM,258 nM,1680 nM,"Cn1nnc(-c2cccc(OCc3csc4c(C(=O)NCCO)cnc(N)c34)c2)n1 [Example 33, 4-Amino-3-[3-(2-methyl-2H-tetrazol-5-yl)-phenoxymethyl]-thieno[3,2-c]pyridine-7-carboxylic acid (2-hydroxy-ethyl)-amide]"
